Data on three compounds can be found in US11491169B2, “Remdesivir treatment methods” (Gilead Sciences, Inc., priority 2020, dated 2022).

SMILES strings stand for the structures. Where two headings read alike, the source gives them in different places.

One data set deals with SARS-CoV-2. Put plainly: SARS-CoV-2 Nluc antiviral assay in A549-hACE2 cells. It is filed as cell-based. The conditions noted are these: for Nluc signal (SARS-CoV-2 replication): 10 μM of CQ or HCQ alone.
For data set [1] the following is noted: doses recommended under the former EUA guidance for COVID-19; cited from earlier work.
Data set [2] deals with HEp-2 cells.
For data set [3], the system named is A549-hACE2 cells. The conditions noted are these: for Mean RDV-TP: human, 1 μM.
Data set [4] deals with HEp-2 cells. Put plainly: Formula Ia triphosphate (RDV-TP) formation in HEp-2 cells, LC-MS/MS. As to conditions: 2 h.
In data set [5] the test system is respiratory syncytial virus (RSV). Put plainly: microbe, parasite or virus in culture. In kind it is cell-based. The conditions noted are these: human respiratory syncytial virus, HEp-2, read-out: Formula Ia RSV EC50, HEp2 cells. As for the experimental part: The cells were then infected with RSV A2 virus diluted in DMEM medium+GlutaMAX at an MOI=4 and incubated for 4 days at 37° C. and 5% CO2. The final volume in each well was 200 μL. Uninfected and untreated wells were included as controls for 100% cell viability. Following the incubation, 100 μL of culture supernatant was removed from each well and replaced with 100 μL of CellTiter-Glo reagent (Promega). The plates were then rocked for 2 minutes followed by a 10-minute incubation at 25° C. Cell viability was then assessed by measuring luminescence signal using and Envision plate reader. Values were normalized to the uninfected and infected DMSO controls (as 100% and 0% […], respectively) and data was fit using non-linear regression analysis with the XLfit software.

In data set [6] the test system is A549-hACE2 cells. As to conditions: Formula Ia and HCQ combination concentrations analyzed (data not shown).
Setting [7] is: Severe acute respiratory syndrome coronavirus 2, read-out: SARS-CoV-2 Nluc EC50, A549-hACE2 cells, single agent + DMSO.

What is called EC50 is the concentration giving half of the maximal effect.

Consider `CCN(CC)CCCC(C)Nc1ccnc2cc(Cl)ccc12` (centres unmarked) [CQ, N′-(7-chloroquinolin-4-yl)-N,N-diethyl-pentane-1,4-diamine, reference compound], for which the “Nluc signal (SARS-CoV-2 replication)” value in the data set on SARS-CoV-2 (A549-hACE2 cells) is “fully suppressed”. Moreover, the 50% effective concentration (EC50) with SARS-CoV-2 (setting [7]) is about 0.451 µM. Also, the Average systemic exposures in data set [1] was 610 to 760 nM. Also, the “Effect on formation of intracellular Formula Ia-TP” value in the data set on HEp-2 cells [2] is “dose-dependent reduction”. Besides, the “Effect on Formula Ia-TP levels” value with A549-hACE2 cells [3] is “did not significantly reduce”; in the data set on NHBE cultures it was “not statistically significant”. Moreover, the “Effect on production of Formula Ia-TP” value with A549-hACE2 cells [3] is listed as “did significantly lower”.

As to `CCC(CC)COC(=O)[C@H](C)N[P@](=O)(OC[C@H]1O[C@@](C#N)(c2ccc3c(N)ncnn23)[C@H](O)[C@@H]1O)Oc1ccccc1` [Formula Ia, (S)-2-ethylbutyl 2-(((S)-(((2R,3S,4R,5R)-5-(4-aminopyn-olo[2,1-f][1,2,4]triazin-7-yl)-5-cyano-3,4-dihydroxytetrahydrofuran-2-yl)methoxy)(phenoxy)phosphoryl)amino)propanoate], the EC50 with SARS-CoV-2 (read-out: SARS-CoV-2 Nluc EC50, A549-hACE2 cells, + 10 nm HCQ) is 0.0636 µM; in the data set on SARS-CoV-2 (read-out: SARS-CoV-2 Nluc EC50, A549-hACE2 cells, + 40 nm HCQ), 0.0507 µM; in the data set with SARS-CoV-2 (read-out: SARS-CoV-2 Nluc EC50, A549-hACE2 cells, + 640 nm CQ) it was 0.046 µM; with SARS-CoV-2 (read-out: SARS-CoV-2 Nluc EC50, A549-hACE2 cells, + 2500 nm HCQ), 0.063 µM; in data set [5] (chloroquine 0 nM), 0.0495 ± 0.0131 µM; in data set [5] (chloroquine 10 nM), 0.0584 ± 0.0128 µM. Also, the EC50 is 0.0721 ± 0.0248 µM in data set [5] (chloroquine 40 nM), 0.0996 ± 0.0303 µM in data set [5] (chloroquine 160 nM), 0.138 ± 0.0338 µM in data set [5] (chloroquine 640 nM) and 0.209 ± 0.0182 µM in data set [5] (chloroquine 2560 nM). The “Mean RDV-TP” value in the data set with HEp-2 cells [4] (1 μM Formula Ia + 1 μM CQ) is listed as “BLQ”; in the data set on HEp-2 cells [4] (1 μM Formula Ia + 1 μM HCQ), “BLQ”; in the data set with HEp-2 cells [4] (1 μM Formula Ia + 10 μM CQ), “BLQ”; with HEp-2 cells [4] (1 μM Formula Ia + 10 μM HCQ), “BLQ”; with HEp-2 cells [4] (1 μM Formula Ia alone), “BLQ”; with A549-hACE2 cells [3] (2 h), 3.6 ± 0.2 pmol/million cells. Further, the “Mean RDV-TP” value with A549-hACE2 cells [3] (24 h) amounted to 6.8 ± 1.3 pmol/million cells; in the data set with A549-hACE2 cells [3] (48 h) it was 3.0 ± 0.5 pmol/million cells.

For the compound `CCN(CCO)CCCC(C)Nc1ccnc2cc(Cl)ccc12` (centres unmarked) [HCQ, 2-[{4-[(7-chloroquinolin-4-yl)amino]pentyl}(ethyl)amino]ethanol, reference compound], the “Nluc signal (SARS-CoV-2 replication)” value with SARS-CoV-2 (A549-hACE2 cells) is reported as “fully suppressed”. Further, in the data set on SARS-CoV-2 (setting [7]), the 50% effective concentration (EC50) is about 0.365 µM. In addition, the Average systemic exposures result in data set [1] is “approximately 1.7 μM”. Further, in the data set with A549-hACE2 cells [6], the Cytotoxicity entry is reported as “not observed”.
